# Experimental data: patent US20070060610A1, “Methods and pharmaceutical formulations for increasing bioavailability” (priority 2005, published 2007)
# System: Caco-2 monolayers
# Settings: FIG. 1A; different pre-incubation times; Rhodamine 123 13 μM; TPGS 1000 33 μM on both sides
# Protocol: Caco-2 cell culture and handling: Caco-2 cells, clone C2BBe1, were purchased from American Type Culture Collection (ATCC; Manassas, Va.) and used from passage 70-92 with Corning Incorp. Life Sciences (Acton, Mass.) polycarbonate membranes (3460; 12-well, pore size 0.4 μm, 1.13 cm^2). Cells were seeded at a density of ˜60,000 cells/cm^2 and grown at ˜37° C. in a controlled atmosphere of ˜5% CO2 with a relative humidity of ˜85%. The culture medium consisted of DMEM supplemented with 10% FBS, 1% non-essential amino acids, 100 μg/mL streptomycin and 100 U/mL penicillin. Transepithelial electrical resistance (TEER) was measured with a hand-held REMS electrical volt-ohm meter EVOM (World Precision Instruments; Sarasota, Fla.). […]
# Using the transport assay, drug transport was assessed in absorptive (apical to basolateral, Ap→Bl) and secretory (Bl→Ap) directions. […]
# Cell monolayers were agitated using an orbital shaker (IKA®—Werke GmbH & CO KG; Staufen, Germany) at 100±20 rpm. […] RHO was quantified with a Cytofluor-2 fluorescence plate reader (Perkin Elmer Biosystems; Weiterstadt, Germany) operating at excitation wavelength of 485 nm and emission wavelength of 530 nm to measure RHO.
# Apparent Permeability and statistical analysis: flux was determined using receiver compartment RHO steady-state appearance rates (ΔQ/Δt). Papp across Caco-2 monolayers was calculated via: [formula] […]
substance,measurement,value
d-α-tocopheryl polyethylene glycol succinate [TPGS 1000],effect of pre-exposure on amount of compound transported across the cells (apical to basolateral),effectively increases the amount of compound transported across the cells (apical to basolateral) in a time-dependent fashion
